Patent US6458746B1, “Plant growth regulating formulations” (BASF Aktiengesellschaft, priority 1998, dated 2002)

Columns and labels:
Assay type in all cases: in vivo
[1] = tested on: barley; assay: Greenhouse shoot length test, barley; settings: for Shoot length Barley [% of control]: 1% formulations in Atlas G 1086; for Shoot length [% of control] Barley: 2.5 g/ha ai; as to Shoot length reduction [activity, relative to control] in barley: key: 0: no effect; +: low activity; ++: intermediate activity; +++: high activity
Method: (§1) Unless otherwise noted, the growth regulating proerties of different compounds in different formulations were determined under greenhouse conditions as follows: […]
(§2) Test plants were grown in plastic pots of approximately 12.5 cm in diameter in a substrate provided with sufficient nutrients and water. At an appropriate shoot length the plants were treated with aqueous sprays of the formulations. The growth-regulating action observed was confirmed at the end of the experiment by measuring the height of the plants. The results obtained were compared with the growth height of the untreated plants.
(§3) Assays with wheat, barley, oat, and rye plants were carried out as described above. The aqueous spray solutions were prepared as follows: […]

[2] = tested on: small grains and rice (wheat, barley, oats, rye, rice); assay: Shoot length reduction in small grains and rice (statements across species); settings: Examples 1 and 2
Method: as §1, §2

[3] = tested on: oats; assay: Greenhouse shoot length test, oats; settings: 1% formulations in cyclohexanone: Emulan EL = 4:1; also: key: 0: no effect; +: low activity; ++: intermediate activity; +++: high activity
Method: as §1, §2

[4] = tested on: rice seedlings [cvs. “Koshihikari” (tall), “Tan-ginbozu” (dwarf), “Waito C” (dwarf)]; assay: Shoot growth of rice seedlings, combinations with GA3; settings: for Shoot growth Waito C [% of Control] / Shoot growth Tan-ginbozu [% of Control] / Shoot growth Koshihikari [% of Control]: 7 days after treatment, 1 kg/ha ammonium sulphate added; for Shoot growth Waito C [% of Control]: 100% = 8.7 cm; for Shoot growth Tan-ginbozu [% of Control]: 100% = 9.4 cm; for Shoot growth Koshihikari [% of Control]: 100% = 17.4 cm
Method: as §1, §2
The synergizing effect of compound VII on shoot elongation in rice is shown in the results of Example 7.
Enhanced shoot growth of rice seedlings [cvs. “Koshihikari” tall), “Tan-ginbozu” (dwarf), “Waito C” (dwarf)] 7 days after treatment with combinations of compound 6 with GA3^d

[5] = tested on: rye; assay: Greenhouse shoot length test, rye; settings: 1% formulations in cyclohexanone: Emulan EL = 4:1; also: key: 0: no effect; +: low activity; ++: intermediate activity; +++: high activity
Method: as §1, §2

[6] = tested on: spring barley (cv. “Alexis”); assay: Shoot height reduction in spring barley, synergistic combinations; settings: 20 days after treatment
Method: as §1, §2
(§4) To show the synergistic effects of formulations in accordance with the instant invention together with further growth regulating agents, formulations in accordance with the invention were prepared and additional active ingredients added.
Shoot height reduction in spring barley (cv. “Alexis”) 20 days after treatment with combinations of standard compound S2 and compound VII
Shoot height reduction in spring barley (cv. “Alexis”) 20 days after treatment with combinations of standard compound S4 and compound VII

[7] = tested on: wheat; assay: Greenhouse shoot length test, wheat; settings: for Shoot length Wheat [% of control]: 1% formulations in Atlas G 1086; for Shoot length [% of control] Wheat: 2.5 g/ha ai
Method: as §1, §2, §3

[8] = tested on: rice; assay: Greenhouse shoot length test, rice; settings: 1% formulations in cyclohexanone: Emulan EL = 4:1; also: key: 0: no effect; +: low activity; ++: intermediate activity; +++: high activity
Method: as §1, §2

[9] = tested on: spring wheat (cv. “Ralle”); assay: Shoot height reduction in spring wheat, synergistic combinations
Method: as §1, §2, §4
Shoot height reduction in spring wheat (cv. “Ralle”) 21 days after treatment with combinations of standard compound S4 and compound VII
Shoot height reduction in spring wheat (cv. “Ralle”) 13 days after treatment with combinations of standard compound S5 and compound VII

[10] = 1% formulations in cyclohexanone: Emulan EL = 4:1

exo-16,17-Dihydro-GA5-13-acetate [Comp. VII]
Shoot length reduction [activity, relative to control] in barley [1, 10]: +++
Shoot length Barley [% of control] ([1]; 1.6 g/ha ai): 97 % of control
Shoot length [% of control] Barley ([1]; adjuvant Ethanol 500 g/ha): 99 % of control
Shoot length [% of control] Barley ([1]; adjuvant R 15 500 g/ha): 75 % of control
Shoot length Barley [% of control] ([1]; 3.1 g/ha ai): 78 % of control
Shoot length Barley [% of control] ([1]; 6.3 g/ha ai): 61 % of control
Shoot length Barley [% of control] ([1]; 12.5 g/ha ai): 57 % of control
shoot length reduction compared with compounds II to V [2]: superior to compounds II to V
Shoot length reduction [activity, relative to control] in oats [3]: +++
Shoot growth Waito C [% of Control] ([4]; VII 12.5 g/ha ai): 80 % of Control
Shoot growth Tan-ginbozu [% of Control] ([4]; VII 12.5 g/ha ai): 74 % of Control
Shoot growth Koshihikari [% of Control] ([4]; VII 12.5 g/ha ai): 75 % of Control
Shoot growth Waito C [% of Control] ([4]; VII 25.0 g/ha ai): 80 % of Control
Shoot growth Tan-ginbozu [% of Control] ([4]; VII 25.0 g/ha ai): 74 % of Control
Shoot growth Koshihikari [% of Control] ([4]; VII 25.0 g/ha ai): 75 % of Control
Shoot growth Waito C [% of Control] ([4]; VII 50.0 g/ha ai): 80 % of Control
Shoot growth Tan-ginbozu [% of Control] ([4]; VII 50.0 g/ha ai): 74 % of Control
Shoot growth Koshihikari [% of Control] ([4]; VII 50.0 g/ha ai): 75 % of Control
effect on shoot elongation in rice ([4]; applied alone): reduces shoot elongation
effect on the shoot growth-promoting effect of GA3 ([4]; applied in combination with GA3): could clearly be raised
Shoot length reduction [activity, relative to control] in rye [5]: +++
% Shoot height reduction Actual ([6]; 3 g/ha a.i.): 6%
% Shoot height reduction Actual ([6]; 3 g/ha a.i., S4/VII table): 6%
% Shoot height reduction Actual ([6]; 6 g/ha a.i.): 18%
% Shoot height reduction Actual ([6]; 6 g/ha a.i., S4/VII table): 18%
Shoot length reduction [activity, relative to control] in wheat [7, 10]: +++
Shoot length Wheat [% of control] ([7]; 1.6 g/ha ai): 90 % of control
Shoot length [% of control] Wheat ([7]; adjuvant Ethanol 500 g/ha): 99 % of control
Shoot length [% of control] Wheat ([7]; adjuvant R 15 500 g/ha): 73 % of control
Shoot length Wheat [% of control] ([7]; 3.1 g/ha ai): 73 % of control
Shoot length Wheat [% of control] ([7]; 6.3 g/ha ai): 70 % of control
Shoot length Wheat [% of control] ([7]; 12.5 g/ha ai): 64 % of control
Shoot length reduction [activity, relative to control] in rice [8]: +++
% Shoot height reduction Actual ([9]; 3 g/ha a.i., 21 days after treatment): 8%
% Shoot height reduction Actual ([9]; 6 g/ha a.i., 13 days after treatment): 18%
% Shoot height reduction Actual ([9]; 6 g/ha a.i., 21 days after treatment): 21%
